How the values were obtained:
ARNT/HIF1β homodimer = ARNT/HIF1β homodimer formation upon PP1/PP2A inhibition; details: for ARNT/HIF1β homodimer formation: Okadaic acid: PP1/PP2A inhibition, Tautomycin: PP1, LB-100: PP2A
From the text: Based on previous reports that combined inhibition of PP1/PP2A with Okadaic acid is capable to induce ARNT/HIF1β homodimer formation and transactivation activity by directly blocking ARNT dephosphorylation (163), the inventors first confirmed enhanced […] homodimer formation upon PP1/PP2A inhibition (FIG. 57A). […] See also FIG. 58.

FKBP12, YY1, ARNT = assay: In vivo-morpholino knockdown: intrarenal protein levels (immunostaining, immunoblotting); details: UUO mice, VMO 12.5 mg/kg intraperitoneally, vs control-VMO
Protocol: Mice were injected intraperitoneally with 12.5 mg/kg body weight in vivo-morpholinos (Gene Tools, Philomath, USA) in saline at a final volume of 100 μL every other day starting two days prior of surgery (114), sequence alignments were performed using NCBI Nucleotide Blast and are listed in Tables 3-5 (157). A control in vivo-morpholino that targets a human β-globin intron mutation was used as standard control (116).
(§1) For immunofluorescent staining, primary antibodies against ARNT (5537S, Cell Signaling, Danvers, USA), Hif1α (H6535, Sigma, St. Louis, USA), Hif2α (ab20654, Abcam Biochemicals, Cambridge, UK), phosphorylated Smad1/5/8 (pSmad1/5/8, sc-12353, Santa Cruz Biotechnology, Dallas, USA), CD45 (550539, BD Biosciences, Franklin Lakes, USA), Collagen-1 (ab34710, Abcam Biochemicals, Cambridge, UK), α-smooth muscle actin (aSMA, A5228, Sigma, St. Louis, USA), FKBP12 (ab2918, Abcam Biochemicals, Cambridge, UK) and YY1 (ab12132, Abcam Biochemicals, Cambridge, UK) were used, secondary antibodies were labeled with Alexa Fluor 488 or 568 (Life Technologies, Carlsbad, USA). Renal basement membranes were stained with antibodies against Collagen-4 (1340-30, SouthernBiotech, Birmingham, USA), cardiac cell membranes with antibodies against WGA (W11261, Life Technologies, Carlsbad, USA). Nuclear staining was performed using 4′,6-diamidino-2-phenylindole (DAPI, Vector Laboratories, Burlingame, USA). Relative areas positive for Collagen-1, aSMA, tubular nuclei positive for ARNT and pSmad1/5/8 were quantified in 10 high power fields per section at 400× magnification.
Tissue and cells were homogenized in NP40 lysis buffer (Life technologies, Carlsbad, USA) supplemented with protease inhibitor cocktail (Roche, Basel, Switzerland). […] Luminescence was detected by using chemiluminescent substrate (Cell Signaling, Danvers, USA) on a ChemiDoc XRS system (Bio-Rad, Hercules, USA). […]

parenchymal organs = details: LB-100 2 mg/kg in combination with FK506 0.2 mg/kg s.c. or GPI-1046 10 mg/kg s.c.
Protocol: Mice were injected intraperitoneally with 2 mg/kg body weight LB-100 (LDN, Sigma, St. Louis, USA) every alternate day starting at the day of surgery, control mice received equivalent volume of vehicle buffer.

UUO-challenged kidneys = assay: Unilateral ureteral obstruction (UUO): tubular injury and interstitial fibrosis (histology, immunostaining); type: in vivo, mice; details: UUO; for tubular injury and tubulointerstitial fibrosis: VMO 12.5 mg/kg intraperitoneally or FK506 0.2 mg/kg orally per day; for effect of FK506 on ALK3 expression or reno-protection: VMO added to FK506
[1] = system: intrarenal ARNT/ALK3 signaling; assay: UUO kidneys: ARNT/ALK3 expression and pSmad1/5/8 (qRT-PCR, immunoblotting, immunostaining); type: in vivo, mice; details: for intrarenal ARNT, ALK3 and nuclear pSmad1/5/8 immunostaining: UUO, VMO 12.5 mg/kg intraperitoneally or FK506 0.2 mg/kg orally per day
Protocol: Eight to twelve weeks-old C57/6, yGTcre−;Yy1fl/fl and yGTcre+;Yy1fl/fl mice were anesthetized with isoflurane inhalation (2-3%), analgesia was performed by subcutaneous injection of 0.1 mg/kg body weight per day Buprenorphine. The ureter was separated from the surrounding tissues and two ligatures were placed about 5 mm apart in upper two-thirds of the left ureter to obtain reliable obstruction. Mice were sacrificed 3, 7 or 10 days after ureteral obstruction for further analyses, as described before (53, 153-155).
Paraffin-embedded specimens were deparaffinized in xylene and rehydrated in ethanol containing distilled water. Tissue sections were stained using polyclonal antibodies against ALK3 (sc-20736, Santa Cruz Biotechnology, Dallas, USA) and ARNT (3718S, Cell Signaling, Danvers, USA), peroxidase labeling was performed using Vectastain Universal Elite ABC Kit (Vector Laboratories, Burlingame, USA) according to the manufacturer's protocol. AEC Substrate-Chromogen (Dako, Glostrup, Denmark) was applied for peroxidase visualization according to the manufacturer's protocol. Nuclear counterstain was performed by using Mayer's Hematoxylin Solution (Sigma, St. Louis, USA).
as §1
For SYBR-based real-time PCR, cDNA synthesis was performed by using DNase I digestion (Invitrogen, Carlsbad, USA) and SuperScript II Reverse Transcriptase (Invitrogen, Carlsbad, USA) according to the manufacturer's protocol. 1 μL of reverse-transcribed cDNA was added to the reaction mixture containing the primer pair (200 nmol/L each) and diluted 2× Fast SYBR Green Master Mix (Applied Biosystems, Carlsbad, USA) in a final volume of 20 μL for each PCR reaction. The real-time PCR reactions were performed in a 96-well reaction plate using the StepOne Plus Real-Time System (Applied Biosystems, Carlsbad, USA) and were done in triplicates. An initiation step at 95° C. for 20 seconds was followed by 40 cycles at 95° C. for 3 to seconds and 60° C. for 30 seconds, with one cycle of dissociation at 95° C. for 15 seconds, 60° C. for 60 seconds, and 95° C. for 15 seconds. The intercalation of SYBR Green dye and its fluorescent signal is directly proportional to the amount of amplified DNA and was transformed into the cycle threshold (Ct). For normalization, the Ct values of the housekeeping genes Gapdh and Actb were subtracted from the Ct values of the gene of interest to generate the dCt values. The relative expression levels were calculated using the equation 2^−ddCt.
Tissue and cells were homogenized in NP40 lysis buffer (Life technologies, Carlsbad, USA) supplemented with protease inhibitor cocktail (Roche, Basel, Switzerland).

[2] = FK506 0.02-5.0 mg/kg or CsA 10 mg/kg orally per day starting one day prior to UUO

**Q.** How did the ARNT/HIF1β homodimer formation (ARNT/HIF1β homodimer) turn out when `C=C1[C@@H](O)[C@@H]2O[C@]3(CC[C@H](/C=C/[C@@H](C)[C@@H]4CC(C)=C[C@@]5(O[C@H](C[C@@](C)(O)C(=O)O)CC[C@H]5O)O4)O3)CC[C@H]2O[C@@H]1[C@@H](O)C[C@H](C)[C@H]1O[C@@]2(CCCCO2)CC[C@H]1C` [Okadaic acid] was run?
**A.** The ARNT/HIF1β homodimer formation was “enhanced”.

**Q.** “Arnt-VMO: in vivo-morpholinos targeting translational start site of Arnt (antisense AAGAGCCACTCCGCAGATTAGGCAC; all phosphorodiamidate morpholino (PMO); in vivo-morpholino, delivery moiety not given here, further chemistry not fully specified)” was tested. Which “intrarenal protein levels of respective transcript” value (FKBP12, YY1, ARNT) did it give?
**A.** Its value is “effectively reduced”.

**Q.** Which results are given for `CN1CCN(C(=O)C2C(C(=O)O)[C@H]3CC[C@@H]2O3)CC1` (stereo partly drawn) [LB-100]?
**A.** protection by FK506/GPI-1046 (parenchymal organs): enhances protection; ARNT/HIF1β homodimer formation (ARNT/HIF1β homodimer): enhanced; endogenous ARNT (ARNT/HIF1β homodimer; by protection from degradation): effectively increases; ARNT homodimer formation (mass spectrometry) (ARNT/HIF1β homodimer; in the presence of LB-100): enhancement

**Q.** How did the “tubular injury and tubulointerstitial fibrosis” value (UUO-challenged kidneys) turn out when “Yy1-VMO: in vivo-morpholinos targeting translational start site of Yy1 (SEQ ID NO: 10) (antisense TGTAGAGGGTGTCGCCCGAGGCCAT; all phosphorodiamidate morpholino (PMO); in vivo-morpholino, delivery moiety not given here, further chemistry not fully specified)” was run?
**A.** The value was “attenuated”.

**Q.** And the “effect of FK506 on ALK3 expression or reno-protection” value (UUO-challenged kidneys)?
**A.** Its value is “did not further enhance”.

**Q.** And the “intrarenal protein levels of respective transcript” value (FKBP12, YY1, ARNT)?
**A.** The value was “effectively reduced”.

**Q.** And the “intrarenal ARNT, ALK3 and nuclear pSmad1/5/8 immunostaining” value [1]?
**A.** Its value is “equally induced”.

**Q.** Which chronic tubular injury (UUO-challenged kidneys; [2]) does the source give for Cyclosporine A [CsA] here?
**A.** Its chronic tubular injury is “failed to attenuate”.

**Q.** What about the interstitial fibrosis (UUO-challenged kidneys; [2]) of the same compound?
**A.** The interstitial fibrosis was “failed to attenuate”.

**Q.** And the “expression of ALK3” value ([1]; UUO-challenged murine kidneys, treatment starting one day prior)?
**A.** Its value is “failed to induce”.

**Q.** Which ARNT/HIF1β homodimer formation (ARNT/HIF1β homodimer) does the source give for `CO[C@H]([C@H](O)CC(=O)[C@@H](C)[C@@H](O)CC[C@@H](C)[C@@H]1O[C@]2(CC[C@@H](C)[C@H](CC[C@H](C)C(C)=O)O2)CC[C@@H]1C)[C@H](OC(=O)C[C@@H](O)C1=C(C)C(=O)OC1=O)C(C)C` [Tautomycin] here?
**A.** Its ARNT/HIF1β homodimer formation is “did not affect”.

**Q.** What does the source list for “Fkbp12-VMO: in vivo-morpholinos targeting translational start site of Fkbp12 (SEQ ID NO: 9) (antisense AGATGGTCTCCACCTGCACTCCCAT; all phosphorodiamidate morpholino (PMO); in vivo-morpholino, delivery moiety not given here, further chemistry not fully specified)”?
**A.** tubular injury and tubulointerstitial fibrosis (UUO-challenged kidneys): attenuated; effect of FK506 on ALK3 expression or reno-protection (UUO-challenged kidneys): did not further enhance; intrarenal protein levels of respective transcript (FKBP12, YY1, ARNT): effectively reduced; intrarenal ARNT, ALK3 and nuclear pSmad1/5/8 immunostaining [1]: equally induced
